Like-named read-outs stand apart in the source and are kept apart here.
Assays:
E. faecalis VanA strain [1] = test: Vancomycin potentiation screens VPS-20 and VPS-D-ala; format: cell-based, Enterococcus faecalis; settings: 10 ug/ml test compound; for intrinsic activity against the control cells: no vancomycin; for vancomycin potentiation screen result: VPS-20 and/or VPS-D-ala
Protocol: (§1) In the VPS-20 protocol, vancomycin is used at 20 ug/ml, test compounds are used at 10 ug/ml (this is not critical, a range could be used as well). The growth medium is Brain Heart Infusion broth however, any of a variety of media which will support growth of the specific bacterial strain can be used. The VPS-D-Ala screen uses 8 ug/ml of vancomycin and 50 mM D-alanine. This amino acid is added to feed the bacteria excess alanine, which allows the bacteria to incorporate the alanine in some cases instead of incorporating the (resistance causing) D-lactate in the pentapeptide termini of the cell wall precursor. The presence of this D-alanine supplement thus makes the assay less stringent.
(§2) Inoculate E. faecalis VanA strain in BHI broth (pick a few colonies into 3 ml BHI with 2.56 ug/ml vancomycin and grow O/N at 35° C. in a shaker rotating at 225 rpm.
(§3) Dilute the O/N culture 1:50 in BHI with 2.56 ug/ml vancomycin (0.5 ml±24.5 ml BHI) in a 125-ml flask, put back in the 35° C. shaker until the cells grow to early log phase (OD600 about 0.2, takes approximately 2 hrs). Make a 1:800 dilution of the log phase culture with BHI broth. 50 ul of these diluted cells will be used as the inoculum in the assay as described below. Add the inoculum after the other reagents.
(§4) Meanwhile, test the inoculum concentration and purity: Make 3 serial 10-fold dilutions of the inoculum in 0.2 ml BHI broth. Plate 100 ul on TSA agar plates (trypticase soy agar), incubate at 35° C. O/N, count the colonies to estimate the CFU/ml in the inoculum (it should be 10^4 -10^5 CFU/ml).
(§5) Make vancomycin stock at 50 mg/ml in ddH2 O. Filter sterilize with 0.2 um filter, and keep in the freezer. On the day of the assay, dilute vancomycin to 50 ug/ml (for VPS-20) or 54 ug/ml (for VPS-D-ala) in BHI broth.
Prepare D-alanine (Sigma) at 800 mM in ddH2O. Filter sterilize with 0.2 um filter.
(§6) The test compounds are from 0.1 mg/ml plates in 10% DMSO, 90% 50 mM HEPES, pH 7.3. Thaw at room temperature.
1. Take 40 ul 50 ug/ml vancomycin in BHI to each well of the assay plate (Final volume will be 100 ul, making vancomycin concentration 20 ug/ml)
2. For each assay plate, prepare a toxicity control plate; instead of pipetting 40 ul of the vancomycin, use 40 ul of BHI broth in each well of the assay plate.
3. Dilute 800 mM D-alanine to 200 mM in BHI broth, take 25 ul of the 200 mM D-alanine to both the assay plate and the toxic control plate.
4. Take 15 ul of 54 ug/ml vancomycin in BHI to each well of the assay plate (Final volume will be 100 ul, making vancomycin concentration 8 ug/ml)
5. For each assay plate, prepare a toxicity control plate; instead of pipetting 15 ul of the vancomycin, use 15 ul of BHI broth in each well of the assay plate.
6. Take 10 ul/well of the test compounds to the assay plates and the toxicity control plates. Do this in perfect register in the microtiter plates (change tips), and work using sterile technique (Final concentration will be 10 ug/ml test compounds, 1% DMSO). This must be done with separate tips, in perfect register.
7. Add 10 ul of 10% DMSO, 90% 50 mM HEPES, pH 7.3 in columns 1 and 12 in each plates.
8. Inoculate all wells in columns 2 to 11 with 50 ul 1/800 diluted log phase culture (prepared as indicated above). Use 50 ul sterile BHI instead of inoculum for the negative growth controls in well A-D in columns 1 and well E-H in columns 12. Add 50 ul of inoculum to Wells E-H in columns 1 and wells A-D in columns 12 for the positive growth controls.
(§7) 11. […] Remove mylar lids and check the cell density (A600) in 21-24 hours using a microtiter plate reader. The plates will need to be agitated carefully to resuspend the cells before reading.

[2] = tested on: Enterococcus faecalis VanB; test: Checkerboard assay / dose range study with vancomycin; format: cell-based; settings: for vancomycin MIC reduction in checkerboard assay: compound 0-20 μg/ml, VanB; for synergy with vancomycin: dose range study, VanB phenotype
Source text: (§8) FIG. 9a provides the results of checkerboard assays showing the MIC reduction for vancomycin in the presence of a range of concentrations of brazilin against two Enterococcus faecalis strains, one VanA and the other VanB. […] Similarly, FIG. 9b provides the results of checkerboard assays showing the MIC reduction for vancomycin in the presence of a range of concentrations of 6-ethyl-7-[1-oxo-3-(1-pyrrolidino)]propyl-1,2,3,4-tetrahydro-1,1,4,4-tetramethylnaphthalene (EOPPTTN).
(§9) Two of the three compounds (brazilin and 6-ethyl-7-[oxo-3-(1-pyrrolidino)]propyl-1,2,3,4-tetrahydro-1,1,4,4-tetramethylnaphthalene) have been examined for synergy with vancomycin. […] Two examples of reasons for alterations are for further optimization, and for modification for use with other bacterial strains or species.

[3] = tested on: Enterococcus faecalis VanA; test: as above; format: cell-based; settings: for vancomycin MIC reduction in checkerboard assay: compound 0-20 μg/ml, VanA; for synergy with vancomycin: dose range study, VanA phenotype
Source text: as §8, §9

MRSA = test: Potentiation screening assay: methicillin MIC reduction in MRSA; format: cell-based, Staphylococcus aureus; settings: Staphylococcus aureus; MRSA, methicillin alone
Protocol: After regrowth at 35° C. to an OD600 of 0.2-0.4 (1-2 hrs.), the cells are diluted 1/1000 in MHB. […] The plate is placed in a humidified 35° C. incubator for 5-24 hours, and cell growth or inhibition is read as turbidity (OD600). Two positive and one negative controls for growth are cells grown MHB, cells grown in MHB plus 20 μg/ml methicillin alone (without test compound), and uninoculated MHB respectively.
Compounds which meet the first two criteria for follow-up are evaluated in a standard microdilution assessment of the MIC with methicillin for MRSA. (see Lorian, Antibiotics in Laboratory Medicine, 3rd ed., pp. 72-75 (1991).) In order to be carried further, the MIC of methicillin preferably is reduced in the presence of the potentiator to at most twice the MIC of a susceptible strain for methicillin.
MICs for the compounds were determined in the presence of 0, 5, and 10 μg/ml of each compound. MRSA cells were grown in the presence of 0, 5, and 10 μg/ml test compound and concentrations of methicillin obtained from serial two-fold dilutions starting at 1024 μg/ml to 0.002 μg/ml (This range can be extended or refined as appropriate.) as follows: A fresh inoculum of MRSA cells was grown at 35° C. in Mueller-Hinton Broth (MHB) overnight and then diluted 1/50 in the same medium. After regrowth at 35° C. to an OD600 of 0.2-0.4 (1-2 hrs.), the cells were diluted 1/1000 in MHB. […] The plate was placed in a humidified 35° C. incubator for 24 hours, and cell growth or inhibition was read as turbidity (OD600).

MRSA Col cells = test: Time-kill curve with methicillin; format: cell-based, Staphylococcus aureus; settings: methicillin only; at 24 hours
Protocol: FIG. 3a is a graph of the number of viable MRSA Col cells/ml versus growth time in hours as determined by the method of Example 4. The graph presents the time kill curve for the first potentiating compound from FIG. 1 at 10 μg/ml with methicillin at 20 μg/ml, and curves for controls (drug-free, methicillin only, and potentiator only). Viable cell counts for all controls were greater than 5×10^8 cells/ml at 24 hours, while the viable cell count for methicillin plus potentiator was approximately 5×10^3 cells/ml after 24 hours.
A standard time-kill method (see Eliopolous & Moellering, Ch. 13 in Antibiotics in Laboratory Medicine, 3rd ed., Lorian ed., at pp. 441-444) is used to characterize whether the potentiator-drug combination is bacteriostatic or bactericidal. As controls, normal growth of the pathogen (without drug or potentiator) and the effects of the drug alone and the potentiator alone are assessed using the same inoculum culture as is used in the combination time-kill test. Either bacteriostatic or bactericidal effect should be confirmed for the potentiators to progress to further testing.

E. faecalis VanA strain [4] = test: Vancomycin potentiation screen VPS-20; format: cell-based; settings: Enterococcus faecalis, 10 ug/ml test compound
Protocol: as §1, §2, §3, §4, §5, §6
1. […]
as §7

[5] = tested on: Enterococcus faecalis VanA; test: Vancomycin MIC of the test strain; checkerboard with D-alanine; format: cell-based
Protocol: In addition, in the bacterial strain used in the assays below, vancomycin induces the resistance mechanism. […] However, it is likely that the VPS-8 protocol (or one with a similar glycopeptide concentration)will be useful in conjunction with bacterial strains in which the glycopeptide resistance is not induced by a glycopeptide, such as strains in which the resistance is constitutively expressed.
9. […] 25 ul of the 800 mM D-alanine, 15 ul of 134 ug/ml vancomycin, 10 ul of 10% DMSO, 90% 50 mM HEPES, pH 7.3, 50 ul of BHI broth (negative control) or the inoculum (positive control).

[6] = no vancomycin, read-out: percent intrinsic inhibition in the VPS-20 control (without vancomycin)

SMILES	intrinsic activity against the control cells (E. faecalis VanA strain [1])	vancomycin potentiation screen result (E. faecalis VanA strain [1])	vancomycin MIC reduction in checkerboard assay [2]	synergy with vancomycin [2]	vancomycin MIC reduction in checkerboard assay [3]	synergy with vancomycin [3]	MIC (MRSA)	viable cell count, methicillin only (control) (MRSA Col cells)	inhibition at 10 µg/mL (E. faecalis VanA strain [4]; [6])	inhibition at 10 µg/mL (E. faecalis VanA strain [4]; 20 ug/ml vancomycin, read-out: percent growth inhibition in the VPS-20 assay (with vancomycin))	MIC of vancomycin in the presence of D-alanine ([5]; 200 mM D-alanine)	MIC ([5]; Enterococcus faecalis, read-out: MIC of vancomycin)
CCc1cc2c(cc1C(=O)CCN1CCCC1)C(C)(C)CCC2(C)C [EOPPTTN, 6-ethyl-7-[1-oxo-3-(1-pyrrolidino)]propyl-1,2,3,4-tetrahydro-1,1,4,4-tetramethylnaphthalene]	some intrinsic activity against the control cells	positive, but less than N-benzyl thiosalicylamide	the vancomycin MIC declined significantly	synergy	the vancomycin MIC declined significantly	synergy	–	–	–	–	–	–
COc1cccc(OC)c1C(=O)N[C@@H]1C(=O)N2[C@@H]1SC(C)(C)[C@@H]2C(=O)O [methicillin, reference compound]	–	–	–	–	–	–	> 100 µg/mL	greater than 5×10^8 cells/ml	–	–	–	–
Oc1ccc2c(c1)OC[C@]1(O)Cc3cc(O)c(O)cc3[C@H]21 [brazilin]	some intrinsic activity against the control cells	positive, but less than N-benzyl thiosalicylamide	significant reduction in the vancomycin MIC	synergy	significant reduction in the vancomycin MIC	synergy	–	–	32%	–	–	–
O=C(NCc1ccccc1)c1ccccc1S [N-benzyl thiosalicylamide]	little intrinsic activity	very potent inhibitor in the assay	–	–	–	–	–	–	4%	88%	–	–
CN[C@H](CC(C)C)C(=O)N[C@H]1C(=O)N[C@@H](CC(N)=O)C(=O)N[C@H]2C(=O)N[C@H]3C(=O)N[C@H](C(=O)N[C@H](C(=O)O)c4cc(O)cc(O)c4-c4cc3ccc4O)[C@H](O)c3ccc(c(Cl)c3)Oc3cc2cc(c3O[C@@H]2O[C@H](CO)[C@@H](O)[C@H](O)[C@H]2O[C@H]2C[C@](C)(N)[C@H](O)[C@H](C)O2)Oc2ccc(cc2Cl)[C@H]1O [vancomycin]	–	–	–	–	–	–	–	–	–	–	16 µg/mL	512 µg/mL
